Assays:
Assay type in all cases: cell-based
HCT-15 = assay: Cytotoxicity against human HCT15 cells assessed as effect on cell growth at 10 uM incubated for 48 hrs by sulforhodamine B assay; conditions: hct-15, 48 h
COLO 205 = assay: Cytotoxicity against human COLO205 cells assessed as effect on cell growth at 10 uM incubated for 48 hrs by sulforhodamine B assay; conditions: colo 205, 48 h
SF-295 = assay: Cytotoxicity against human SF295 cells assessed as effect on cell growth at 10 uM incubated for 48 hrs by sulforhodamine B assay; conditions: sf-295, 48 h
U-251 = assay: Cytotoxicity against human U251 cells assessed as effect on cell growth at 10 uM incubated for 48 hrs by sulforhodamine B assay; conditions: u-251, 48 h
786-0 = assay: Cytotoxicity against human 786-0 cells assessed as effect on cell growth at 10 uM incubated for 48 hrs by sulforhodamine B assay; conditions: 786-0, 48 h
SK-MEL-5 = assay: Cytotoxicity against human SK-MEL-5 cells assessed as effect on cell growth at 10 uM incubated for 48 hrs by sulforhodamine B assay; conditions: sk-mel-5, 48 h
HOP-62 = assay: Cytotoxicity against human HOP62 cells assessed as effect on cell growth at 10 uM incubated for 48 hrs by sulforhodamine B assay; conditions: hop-62, 48 h
Hs-578T = assay: Cytotoxicity against human Hs 578T cells assessed as effect on cell growth at 10 uM incubated for 48 hrs by sulforhodamine B assay
SF-268 = assay: Cytotoxicity against human SF268 cells assessed as effect on cell growth at 10 uM incubated for 48 hrs by sulforhodamine B assay; conditions: sf-268, 48 h
NCI-H460 = assay: Cytotoxicity against human NCI-H460 cells assessed as effect on cell growth at 10 uM incubated for 48 hrs by sulforhodamine B assay; conditions: nci-h460, 48 h
BT-549 = assay: Cytotoxicity against human BT549 cells assessed as effect on cell growth at 10 uM incubated for 48 hrs by sulforhodamine B assay; conditions: bt-549, 48 h
OVCAR-4 = assay: Cytotoxicity against human OVCAR4 cells assessed as effect on cell growth at 10 uM incubated for 48 hrs by sulforhodamine B assay; conditions: ovcar-4, 48 h
NCI/ADR-RES = assay: Cytotoxicity against human NCI/ADR-RES cells assessed as effect on cell growth at 10 uM incubated for 48 hrs by sulforhodamine B assay
HOP-92 = assay: Cytotoxicity against human HOP92 cells assessed as effect on cell growth at 10 uM incubated for 48 hrs by sulforhodamine B assay; conditions: hop-92, 48 h
Malme-3M = assay: Cytotoxicity against human MALME-3M cells assessed as effect on cell growth at 10 uM incubated for 48 hrs by sulforhodamine B assay
NCI-H522 = assay: Cytotoxicity against human NCI-H522 cells assessed as effect on cell growth at 10 uM incubated for 48 hrs by sulforhodamine B assay; conditions: nci-h522, 48 h
SNB-75 = assay: Cytotoxicity against human SNB75 cells assessed as effect on cell growth at 10 uM incubated for 48 hrs by sulforhodamine B assay; conditions: snb-75, 48 h
NCI-H226 = assay: Cytotoxicity against human NCI-H226 cells assessed as effect on cell growth at 10 uM incubated for 48 hrs by sulforhodamine B assay; conditions: nci-h226, 48 h
SN12C = assay: Cytotoxicity against human SN12C cells assessed as effect on cell growth at 10 uM incubated for 48 hrs by sulforhodamine B assay
IGROV-1 = assay: Cytotoxicity against human IGROV1 cells assessed as effect on cell growth at 10 uM incubated for 48 hrs by sulforhodamine B assay; conditions: igrov-1, 48 h

Measured: Activity

O=C1N[C@H](C(=O)NCc2ccc(Cl)cc2Cl)C/C1=N\O (stereo in doubt)
Non-Toxic: all assays above

CN1C(=O)CC[C@H]1C(=O)NCc1cccc(C(F)(F)F)c1Cl [GSK1482160]
Non-Toxic: all assays above

O=C(NCCc1ccccc1)[C@@H]1CCC(=O)N1Cc1ccc(Cl)cc1Cl
Non-Toxic: all assays above

O=C(NCc1ccc(Cl)cc1Cl)[C@@H]1CCC(=O)N1c1ccc(Cl)cc1Cl
Non-Toxic: all assays above

CN1CCN(/C=C2\C[C@@H](C(=O)NCc3ccc(Cl)cc3Cl)N(c3cccs3)C2=O)CC1
Non-Toxic: all assays above

O=C(NCCc1ccccc1)[C@@H]1CCC(=O)N1Cc1ccc(Br)cc1
Non-Toxic: all assays above

O=C(NCCc1ccc(Cl)cc1Cl)[C@@H]1CCC(=O)N1c1ccccc1
Non-Toxic: all assays above

COc1ccc(N2C(=O)[C@@H]3C/C(=C\N(C)C)C(=O)N3C2N(C)C)cc1 (stereo not given in full)
Non-Toxic: all assays above

CCCCCCN1C(=O)[C@@H]2C/C(=C\N(C)C)C(=O)N2C1N(C)C (stereo not given in full)
Non-Toxic: all assays above

CN(Cc1ccccc1)C(=O)[C@@H]1CCC(=O)N1Cc1ccc(Cl)cc1Cl
Non-Toxic: all assays above

O=C(NCc1ccccc1Cl)[C@@H]1CCC(=O)N1Cc1ccccc1Cl
Non-Toxic: all assays above

COc1cc(CNC(=O)[C@@H]2CCC(=O)N2)cc(OC)c1OC
Non-Toxic: all assays above

O=C(NCc1ccccc1Cl)[C@@H]1CCC(=O)N1Cc1ccccc1
Non-Toxic: all assays above

O=C(NCc1ccc(Cl)cc1Cl)[C@@H]1CCC(=O)N1C(c1ccc(Cl)cc1)c1ccc(Cl)cc1
Non-Toxic: all assays above

Source: ChEMBL document CHEMBL4627246, “Pyroglutamide-Based P2X7 Receptor Antagonists Targeting Inflammatory Bowel Disease” (J Med Chem, 2020)
